Patent US10730851B2, “Polymorph of triaryldimethylpiperazine dihydrochloride and preparation method and application thereof” (priority 2016, dated 2020)
Counter-ions that a name gives are not always drawn.

How the values were obtained:
[1] = Rough solubility test; assay type: physicochemical; settings: water, thermodynamic from solid
Protocol: 2.0 mg of a free base and 2.0 mg of polymorph forms B, F, P, J and O are respectively taken and placed in 3.0 mL glass bottles. Then the solvent methanol is added step by step, and ultrasound is performed to observe whether the sample is completely dissolved. If the sample is still not completely dissolved after 2.0 mL of solvent is added, the test is stopped to measure the rough solubility of the free base, polymorph forms B, F, P, J and O in methanol respectively.
Using the same method, the rough solubility of the free base, polymorph forms B, P, F, J and O in other organic solvents or water listed in Table 6 are determined respectively.

[2] = Dynamic moisture adsorption; assay type: physicochemical
[3] = Relative bioavailability test; assay type: in vivo, SPF-grade SD rats; settings: rat, in vivo, po
Protocol: HPLC-MS/MS method is used to detect the blood drug concentration of target drugs in SPF-grade SD rats, and the relative bioavailability of 0.5% CMC-Na suspension of a free base and 0.5% CMC-Na solution of a polymorph form P are calculated and compared.
60.46 mg of a free base is accurately weighed and placed into a 15 mL centrifuge tube, 12 mL of 0.5% CMC-Na solution is measured and added into the centrifuge tube with a measuring cylinder, vortexed for 5 min, and ultrasonically dispersed for 15 min to obtain 0.5% CMC-Na suspension of free base with a concentration of 5.04 mg/ml, which is currently formulated when using and vibrated at any time during administration.
60.05 mg of a polymorph form P is accurately weighed and placed into a 15 mL centrifuge tube, 12 mL of 0.5% CMC-Na solution is measured and added into the centrifuge tube with a measuring cylinder, vortexed for 5 min, and ultrasonically dispersed for 15 min to obtain 0.5% CMC-Na solution of 5.00 mg/mL polymorph form P, which is currently formulated when using.
Twelve SPF-grade SD rats are selected and randomly divided into a free base group and a polymorph form P group with 6 rats in each group (both male and female). Animals are fasted for 12 h but have free access to water. Weighing is performed and, the administration volume of each rat is calculated according to the animal weight, so that the administration dose is 20 mg/kg·bw. During administration, the drugs are each administrated by gavage, and 0.5% CMC-Na suspension/solution of the above two target drugs are extracted by 2 mL syringe respectively. The gavage needle is inserted into the stomach from the corner of the rat's mouth and pushed the solution thereto.
Blood is collected from the fundus venous plexus of rats at 0.2 mL before (0 h) and 0.5, 1, 2, 4, 6, 8, 12 and 24 h after administration, anticoagulated with 300 IU/mL heparin (1:20) and centrifuged (3000 r/min) for 15 min. After plasma separation, the blood drug concentration of the target drug is determined by HPLC-MS/MS.
Referring to the above-mentioned bioavailability test of the polymorph form P, the bioavailability tests of polymorph forms F, O, B and J are conducted respectively. Different from the bioavailability test of the polymorph form P, rats are given 0.5% CMC-Na solution of the polymorph form F, O, B or J by gavage respectively. Other operations are the same as the above bioavailability test.

[4] = Stability test: physical stability by XRPD under four environmental conditions; assay type: physicochemical; settings: for Crystal form, after nitrogen purging at 60° C. for 2 h / Crystal form, after 40° C./75% RH for one week / Crystal form, after drying at 60 ° C. overnight / Crystal form, after nitrogen purging overnight at room: XRPD; for Crystal form, after nitrogen purging at 60° C. for 2 h / Crystal form, after drying at 60 ° C. overnight / Crystal form, after nitrogen purging overnight at room: dihydrochloride; for Physical stability after standing under the four conditions: conditions 1 to 4; for Crystal form, after 40° C./75% RH for one week / Crystal form, after drying at 60 ° C. overnight: open bottle; for Crystal form, after nitrogen purging overnight at room: room temperature
Protocol: The physical stability of polymorph forms P, F and J are studied under the following four different environmental conditions.
10 mg to 15 mg of polymorph forms P, F and J are each weighed and placed in a 1.5 mL glass bottle, and the glass bottle is placed open for one week in a constant temperature and humidity box under the conditions of 40° C. and 75% RH, and then XRPD tests are carried out on the polymorph forms P, F and J to determine whether the crystal forms of the samples change. FIGS. 11 to 13 are XRPD comparative patterns of polymorph forms P, F and J before and after one week of storage at 40° C. and 75% RH, respectively.
10 mg to 15 mg of polymorph forms P, F and J are each weighed and placed in a 1.5 mL glass bottle, and the glass bottle is placed open overnight in a constant temperature drying oven under the condition of 60° C. Then XRPD test is carried out on the polymorph forms P, F and J to determine whether the crystal forms of the samples change. FIGS. 14 to 16 are XRPD comparative patterns of the polymorph forms P, F and J before and after being placed overnight under a drying condition of 60° C., respectively.
10 mg to 15 mg of polymorph forms P, F and J are each weighed and placed in a 1.5 mL glass bottle, and nitrogen is purged for 2 h under the condition of 60° C. in a nitrogen blower, and then XRPD tests are carried out on the polymorph forms P, F and J to determine whether the crystal forms of the samples change. FIGS. 17 to 19 are XRPD comparative patterns of the polymorph forms P, F and J before and after nitrogen purging for 2 h at 60° C., respectively.
10 mg to 15 mg of polymorph forms P, F and J are each weighed and placed in a 3 mL glass bottle, nitrogen is blown overnight at room temperature in a nitrogen blower, and then XRPD tests are carried out on the polymorph forms P, F and J to determine whether the crystal forms of the samples change. FIGS. 20 to 22 are XRPD comparative patterns of the polymorph forms P, F and J before and after nitrogen purging overnight at room temperature, respectively.
Judging from XRPD comparative patterns of various polymorph forms, the physical stability properties of the polymorph forms P, F and J are obtained, and the results are shown in Table 8.

| Structure (SMILES) | Solubility [1] [µg/mL] | Crystal form change under dynamic moisture adsorption [2] | bioavailability compared with free base [3] | Crystal form, after nitrogen purging at 60° C. for 2 h [4] | Physical stability after standing under the four conditions [4] | Crystal form, after 40° C./75% RH for one week [4] | Crystal form, after drying at 60 ° C. overnight [4] | Crystal form, after nitrogen purging overnight at room [4] | AUC(0-t) ([3]; both sexes, SD, 20 mg/kg) [ng·h/mL] | Cmax ([3]; both sexes, SD, 20 mg/kg) [ng/mL] | Tmax ([3]; both sexes, SD, 20 mg/kg) [h] | bioavailability ([3]; both sexes, SD, 20 mg/kg) [%] | t1/2z ([3]; both, SD, 20 mg/kg) [h] |
| --- | --- | --- | --- | --- | --- | --- | --- | --- | --- | --- | --- | --- | --- |
| CC1CCN(C(=O)c2ccc([C@H](c3cccc(O)c3)N3C[C@@H](C)N(Cc4cccc(F)c4)C[C@@H]3C)cc2)CC1 [Polymorph form B, (4-((R)-((2S,5R)-4-(3-fluorobenzyl)-(2,5-dimethylpiperazine-1-yl)(3-hydroxyphenyl)methyl)phenyl)(4-methylpiperidine-1-yl)methanone dihydrochloride] | 6400 to 7200 | change into amorphous | better bioavailability than free base |  |  |  |  |  |  |  |  |  |  |
| CC1CCN(C(=O)c2ccc([C@H](c3cccc(O)c3)N3C[C@@H](C)N(Cc4cccc(F)c4)C[C@@H]3C)cc2)CC1 [Polymorph form F, (4-((R)-((2S,5R)-4-(3-fluorobenzyl)-(2,5-dimethylpiperazine-1-yl)(3-hydroxyphenyl)methyl)phenyl)(4-methylpiperidine-1-yl)methanone dihydrochloride] |  |  | better bioavailability than free base | invariability | good stability | invariability | invariability | invariability |  |  |  |  |  |
| CC1CCN(C(=O)c2ccc([C@H](c3cccc(O)c3)N3C[C@@H](C)N(Cc4cccc(F)c4)C[C@@H]3C)cc2)CC1 [Polymorph form J, (4-((R)-((2S,5R)-4-(3-fluorobenzyl)-(2,5-dimethylpiperazine-1-yl)(3-hydroxyphenyl)methyl)phenyl)(4-methylpiperidine-1-yl)methanone dihydrochloride] |  |  | better bioavailability than free base |  |  | invariability |  |  |  |  |  |  |  |
| CC1CCN(C(=O)c2ccc([C@H](c3cccc(O)c3)N3C[C@@H](C)N(Cc4cccc(F)c4)C[C@@H]3C)cc2)CC1 [Polymorph form O, (4-((R)-((2S,5R)-4-(3-fluorobenzyl)-(2,5-dimethylpiperazine-1-yl)(3-hydroxyphenyl)methyl)phenyl)(4-methylpiperidine-1-yl)methanone dihydrochloride] |  | change into amorphous | better bioavailability than free base |  |  |  |  |  |  |  |  |  |  |
| CC1CCN(C(=O)c2ccc([C@H](c3cccc(O)c3)N3C[C@@H](C)N(Cc4cccc(F)c4)C[C@@H]3C)cc2)CC1 [Polymorph form P, (4-((R)-((2S,5R)-4-(3-fluorobenzyl)-(2,5-dimethylpiperazine-1-yl)(3-hydroxyphenyl)methyl)phenyl)(4-methylpiperidine-1-yl)methanone dihydrochloride] |  |  |  | invariability | good stability | invariability | invariability | invariability | 584 | 98.1 ± 25.2 | 1.3 ± 0.5 | 202 | 2.5 ± 0.8 |
